{"source": "patent US20260207718A1", "about": "“METHODS FOR TREATING LATE ONSET POMPE DISEASE IN PEDIATRIC PATIENTS” (Amicus Therapeutics, Inc., priority 2022, published 2026)", "key": {"[1]": {"system": "pediatric subjects with late-onset Pompe disease", "experiment": "ATB200-04 trial: safety in pediatric subjects with LOPD", "assay_type": "in vivo, human", "details": "ERT-experienced subject, Cohort 2", "source_text": "This study includes subjects with Pompe disease except classic IOPD.\nSafety assessments include monitoring of adverse events (AEs), clinical laboratory tests (chemistry, hematology, and urinalysis), physical examinations, vital signs, 12-lead electrocardiogram (ECGs), and detection of cipaglucosidase alfa antibodies."}, "[2]": {"experiment": "ATB200-04 trial: population PK exposure matching of adolescents to adults", "assay_type": "in vivo, human", "details": "for AUC(0-t) / Cmax: human, plasma", "excerpt": "The ATB200-04 trial seeks to evaluate the safety and tolerability of cipaglucosidase alfa/miglustat co-administration.\nSubjects have scheduled PK assessments at Day 1, Week 26, and Week 52 for plasma total GAA protein and miglustat.\nPopulation PK parameters include clearance (CL) and volume of distribution (V), estimated from total GAA protein concentrations and miglustat concentrations in plasma.\nMethods for Exposure Matching. Pediatric PK data from both clinical trials and expanded access programs were used for exposure matching to adult PK data. […] The previous base population PK models from cipaglucosidase alfa-atga and miglustat were rerun with the updated dataset. To account for longitudinal changes in body size for pediatric patients, the time-varying body weight was used to estimate the effects of body size on PK parameters in the population PK models. The effect of age at baseline on clearance was also evaluated in the PK models. Individual AUC0-24 and Cmax of cipaglucosidase alfa and miglustat were predicted from the PK empirical Bayes estimates (EBEs). The time-varying body weight and baseline age in pediatrics were used in the exposure prediction. PK exposures (AUC0-24 and Cmax) were predicted for each PK visit during the study; Day 1-baseline, Week 26, and Week 52. Additionally, there were unscheduled PK visits for some subjects.\nResults for Adolescent Subjects. […] The dose may have been adjusted at a later visit for exposure matching. It should be noted however, that in the early stage of the study, all subjects were started at 20 mg/kg to evaluate safety."}}, "note": "Read-outs that look alike come from different tables or passages of the source.", "data": [{"compound": "CCCCN1C[C@H](O)[C@@H](O)[C@H](O)[C@H]1CO", "note": "[miglustat, (2R,3R,4R,5S)-1-butyl-2-(hydroxymethyl) piperidine-3,4,5-triol]", "values": [{"measurement": "investigator-assessed relatedness of anaphylaxis event (both episodes)", "setting": "[1]", "value": "unrelated"}, {"measurement": "predicted AUC0-24 and Cmax for adolescents relative to adult 5th and 95th percentile range", "setting": "[2]; adults N=100, adolescents N=8", "value": "for most adolescents are within the adult 5th and 95th percentile range"}, {"measurement": "AUC(0-t)", "setting": "[2]; oral, miglustat, predicted, Adults N=100, read-out: AUC0-24, Geo Mean", "value": 20400, "unit": "ng·h/mL"}, {"measurement": "AUC(0-t)", "setting": "[2]; oral, miglustat, predicted, Adults N=100, read-out: AUC0-24, Mean", "value": 20700, "unit": "ng·h/mL"}, {"measurement": "AUC(0-t)", "setting": "[2]; oral, miglustat, predicted, Adults N=100, read-out: AUC0-24, Median", "value": 20700, "unit": "ng·h/mL"}, {"measurement": "AUC(0-t)", "setting": "[2]; oral, miglustat, predicted, Adults N=100, read-out: AUC0-24, P5", "value": 15200, "unit": "ng·h/mL"}, {"measurement": "AUC(0-t)", "setting": "[2]; oral, miglustat, predicted, Adults N=100, read-out: AUC0-24, P95", "value": 28300, "unit": "ng·h/mL"}, {"measurement": "Cmax", "setting": "[2]; oral, miglustat, predicted, Adults N=100, read-out: Cmax, Geo Mean", "value": 2370, "unit": "ng/mL"}, {"measurement": "Cmax", "setting": "[2]; oral, miglustat, predicted, Adults N=100, read-out: Cmax, Mean", "value": 2420, "unit": "ng/mL"}, {"measurement": "Cmax", "setting": "[2]; oral, miglustat, predicted, Adults N=100, read-out: Cmax, Median", "value": 2370, "unit": "ng/mL"}, {"measurement": "Cmax", "setting": "[2]; oral, miglustat, predicted, Adults N=100, read-out: Cmax, P5", "value": 1720, "unit": "ng/mL"}, {"measurement": "Cmax", "setting": "[2]; oral, miglustat, predicted, Adults N=100, read-out: Cmax, P95", "value": 3280, "unit": "ng/mL"}, {"measurement": "AUC(0-t)", "setting": "[2]; po, 195 mg, adolescent Subject 5, 195 mg, Week 52, 43.7 kg, read-out: individual predicted AUC0-24", "value": 21000, "unit": "ng·h/mL"}, {"measurement": "Cmax", "setting": "[2]; po, 195 mg, adolescent Subject 5, 195 mg, Week 52, 43.7 kg, read-out: individual predicted Cmax", "value": 2330, "unit": "ng/mL"}, {"measurement": "AUC(0-t)", "setting": "[2]; po, 195 mg, adolescent Subject 6, 195 mg, Week 52, 36.5 kg, read-out: individual predicted AUC0-24", "value": 13500, "unit": "ng·h/mL"}, {"measurement": "Cmax", "setting": "[2]; po, 195 mg, adolescent Subject 6, 195 mg, Week 52, 36.5 kg, read-out: individual predicted Cmax", "value": 1700, "unit": "ng/mL"}, {"measurement": "AUC(0-t)", "setting": "[2]; po, 260 mg, adolescent Subject 1, 260 mg, Week 52, 77.9 kg, read-out: individual predicted AUC0-24", "value": 20400, "unit": "ng·h/mL"}, {"measurement": "Cmax", "setting": "[2]; po, 260 mg, adolescent Subject 1, 260 mg, Week 52, 77.9 kg, read-out: individual predicted Cmax", "value": 2960, "unit": "ng/mL"}, {"measurement": "AUC(0-t)", "setting": "[2]; po, 260 mg, adolescent Subject 2, 260 mg, Week 52, 83.8 kg, read-out: individual predicted AUC0-24", "value": 17100, "unit": "ng·h/mL"}, {"measurement": "Cmax", "setting": "[2]; po, 260 mg, adolescent Subject 2, 260 mg, Week 52, 83.8 kg, read-out: individual predicted Cmax", "value": 1910, "unit": "ng/mL"}, {"measurement": "AUC(0-t)", "setting": "[2]; po, 260 mg, adolescent Subject 3, 260 mg, Week 52, 64.6 kg, read-out: individual predicted AUC0-24", "value": 20300, "unit": "ng·h/mL"}, {"measurement": "Cmax", "setting": "[2]; po, 260 mg, adolescent Subject 3, 260 mg, Week 52, 64.6 kg, read-out: individual predicted Cmax", "value": 2170, "unit": "ng/mL"}, {"measurement": "AUC(0-t)", "setting": "[2]; po, 260 mg, adolescent Subject 4, 260 mg, Week 64, 53.3 kg, read-out: individual predicted AUC0-24", "value": 22300, "unit": "ng·h/mL"}, {"measurement": "Cmax", "setting": "[2]; po, 260 mg, adolescent Subject 4, 260 mg, Week 64, 53.3 kg, read-out: individual predicted Cmax", "value": 2590, "unit": "ng/mL"}, {"measurement": "AUC(0-t)", "setting": "[2]; po, 260 mg, adolescent Subject 7, 260 mg, Week 52, 60.3 kg, read-out: individual predicted AUC0-24", "value": 15000, "unit": "ng·h/mL"}, {"measurement": "Cmax", "setting": "[2]; po, 260 mg, adolescent Subject 7, 260 mg, Week 52, 60.3 kg, read-out: individual predicted Cmax", "value": 1850, "unit": "ng/mL"}, {"measurement": "AUC(0-t)", "setting": "[2]; po, 260 mg, adolescent Subject 8, 260 mg, Week 72, 38.5 kg, read-out: individual predicted AUC0-24", "value": 19600, "unit": "ng·h/mL"}, {"measurement": "Cmax", "setting": "[2]; po, 260 mg, adolescent Subject 8, 260 mg, Week 72, 38.5 kg, read-out: individual predicted Cmax", "value": 1800, "unit": "ng/mL"}, {"measurement": "AUC(0-t)", "setting": "[2]; po, miglustat, predicted, Adolescents N=8, read-out: AUC0-24, Geo Mean", "value": 18400, "unit": "ng·h/mL"}, {"measurement": "AUC(0-t)", "setting": "[2]; po, miglustat, predicted, Adolescents N=8, read-out: AUC0-24, Mean", "value": 18700, "unit": "ng·h/mL"}, {"measurement": "AUC(0-t)", "setting": "[2]; po, miglustat, predicted, Adolescents N=8, read-out: AUC0-24, Median", "value": 20000, "unit": "ng·h/mL"}, {"measurement": "AUC(0-t)", "setting": "[2]; po, miglustat, predicted, Adolescents N=8, read-out: AUC0-24, P5", "value": 14100, "unit": "ng·h/mL"}, {"measurement": "AUC(0-t)", "setting": "[2]; po, miglustat, predicted, Adolescents N=8, read-out: AUC0-24, P95", "value": 21800, "unit": "ng·h/mL"}, {"measurement": "Cmax", "setting": "[2]; po, miglustat, predicted, Adolescents N=8, read-out: Cmax, Geo Mean", "value": 2130, "unit": "ng/mL"}, {"measurement": "Cmax", "setting": "[2]; po, miglustat, predicted, Adolescents N=8, read-out: Cmax, Mean", "value": 2160, "unit": "ng/mL"}, {"measurement": "Cmax", "setting": "[2]; po, miglustat, predicted, Adolescents N=8, read-out: Cmax, Median", "value": 2040, "unit": "ng/mL"}, {"measurement": "Cmax", "setting": "[2]; po, miglustat, predicted, Adolescents N=8, read-out: Cmax, P5", "value": 1740, "unit": "ng/mL"}, {"measurement": "Cmax", "setting": "[2]; po, miglustat, predicted, Adolescents N=8, read-out: Cmax, P95", "value": 2830, "unit": "ng/mL"}, {"measurement": "Cmax, geometric LSM Ratio adolescents to adults", "setting": "[2]; miglustat, 90% CI (79.51, 101.54)", "value": 89.85}, {"measurement": "AUC0-24, geometric LSM Ratio adolescents to adults", "setting": "[2]; miglustat, 90% CI (80.58, 101.21)", "value": 90.31}]}]}
